What was measured:
Details in all cases: incubation time: 72 h
MCF-10A [1] = test: normalised response (% of control), CellTox Green; higher = less cell death (100 = DMSO, 0 = benzethonium chloride kill control)
Method in brief: (§1)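 For each plate, 0.1 % DMSO was set to 100 and a positive kill control to 0. Breast cancer cell lines (20 µl suspension) were seeded into 384-well plates already holding compound at 5 concentrations in 10-fold steps over a 10,000-fold range chosen per compound, and incubated for 72 h. CellTox Green fluorescence at 485/520 nm was read before CellTiter-Glo luminescence, which followed 10 min at room temperature. Each value is the normalised signal at one concentration.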

CAL-51 [2] = test: as above
Method in brief: as §1

DU-4475 [3] = test: as above
Method in brief: as §1

MFM-223 [4] = test: as above
Method in brief: as §1

BT-474 [5] = test: as above
Method in brief: as §1

HDQ-P1 [6] = test: as above
Method in brief: as §1

HCC1599 [7] = test: as above
Method in brief: as §1

CAL-148 [8] = test: as above
Method in brief: as §1

MDA-MB-453 [9] = test: as above
Method in brief: as §1

CAL-120 [10] = test: as above
Method in brief: as §1

CAL-85-1 [11] = test: as above
Method in brief: as §1

MDA-MB-231 [12] = test: as above
Method in brief: as §1

HCC1143 [13] = test: as above
Method in brief: as §1

BT-549 [14] = test: as above
Method in brief: as §1

MDA-MB-436 [15] = test: as above
Method in brief: as §1

MCF-10A [16] = test: normalised response (% of control), CellTiter-Glo; higher = more viable cells (100 = DMSO, 0 = benzethonium chloride kill control)
Experimental: (§2)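 DSRT, 72 h incubation, CellTox Green / CellTiter-Glo readout. Signal is normalised to DMSO and benzethonium chloride controls. Value is the normalised response at dose 3.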

HCC1937 [17] = test: as above
Experimental: as §2

CAL-51 [18] = test: as above
Experimental: as §2

DU-4475 [19] = test: as above
Experimental: as §2

MFM-223 [20] = test: as above
Experimental: as §2

MDA-MB-468 [21] = test: as above
Experimental: as §2

BT-474 [22] = test: as above
Experimental: as §2

HDQ-P1 [23] = test: as above
Experimental: as §2

HCC1599 [24] = test: as above
Experimental: as §2

CAL-148 [25] = test: as above
Experimental: as §2

MDA-MB-453 [26] = test: as above
Experimental: as §2

CAL-120 [27] = test: as above
Experimental: as §2

Hs578T [28] = test: as above
Experimental: as §2

CAL-85-1 [29] = test: as above
Experimental: as §2

SK-BR-3 [30] = test: as above
Experimental: as §2

MDA-MB-231 [31] = test: as above
Experimental: as §2

HCC1143 [32] = test: as above
Experimental: as §2

BT-549 [33] = test: as above
Experimental: as §2

MDA-MB-436 [34] = test: as above
Experimental: as §2

HCC1937 [35] = test: normalised response (% of control), CellTox Green; higher = less cell death (100 = DMSO, 0 = benzethonium chloride kill control)
Method in brief: as §1

MDA-MB-468 [36] = test: as above
Method in brief: as §1

Hs578T [37] = test: as above
Method in brief: as §1

MCF-10A [38] = test: normalised response (% of control), CellTiter-Glo; higher = more viable cells (100 = DMSO, 0 = benzethonium chloride kill control); remark: listed apart in the source
Method in brief: as §1

HCC1937 [39] = test: as above; remark: listed apart in the source
Method in brief: as §1

CAL-51 [40] = test: as above; remark: listed apart in the source
Method in brief: as §1

DU-4475 [41] = test: as above; remark: listed apart in the source
Method in brief: as §1

MFM-223 [42] = test: as above; remark: listed apart in the source
Method in brief: as §1

MDA-MB-468 [43] = test: as above; remark: listed apart in the source
Method in brief: as §1

BT-474 [44] = test: as above; remark: listed apart in the source
Method in brief: as §1

HDQ-P1 [45] = test: as above; remark: listed apart in the source
Method in brief: as §1

HCC1599 [46] = test: as above; remark: listed apart in the source
Method in brief: as §1

CAL-148 [47] = test: as above; remark: listed apart in the source
Method in brief: as §1

MDA-MB-453 [48] = test: as above; remark: listed apart in the source
Method in brief: as §1

CAL-120 [49] = test: as above; remark: listed apart in the source
Method in brief: as §1

Hs578T [50] = test: as above; remark: listed apart in the source
Method in brief: as §1

CAL-85-1 [51] = test: as above; remark: listed apart in the source
Method in brief: as §1

SK-BR-3 [52] = test: as above; remark: listed apart in the source
Method in brief: as §1

MDA-MB-231 [53] = test: as above; remark: listed apart in the source
Method in brief: as §1

HCC1143 [54] = test: as above; remark: listed apart in the source
Method in brief: as §1

BT-549 [55] = test: as above; remark: listed apart in the source
Method in brief: as §1

MDA-MB-436 [56] = test: as above; remark: listed apart in the source
Method in brief: as §1

C[C@]1(O)C[C@@H](c2nc(-c3ccc4ccc(-c5ccccc5)nc4c3)c3c(N)nccn32)C1 [Linsitinib] (100 nM)
normalised response (MCF-10A [1]): 92.7% | normalised response (CAL-51 [2]): 95.5% | normalised response (DU-4475 [3]): 96.2% | normalised response (MFM-223 [4]): 99.8% | normalised response (BT-474 [5]): 99.3% | normalised response (HDQ-P1 [6]): 93.2% | normalised response (HCC1599 [7]): 93.8% | normalised response (CAL-148 [8]): 76.6% | normalised response (MDA-MB-453 [9]): 99.3% | normalised response (CAL-120 [10]): 97.2% | normalised response (CAL-85-1 [11]): 90.8% | normalised response (MDA-MB-231 [12]): 83.4% | normalised response (HCC1143 [13]): 73% | normalised response (BT-549 [14]): 102% | normalised response (MDA-MB-436 [15]): 52.9% | normalised response (MCF-10A [16]): 72.8% | normalised response (HCC1937 [17]): 107% | normalised response (CAL-51 [18]): 105% | normalised response (DU-4475 [19]): 97.8% | normalised response (MFM-223 [20]): 91.4% | normalised response (MDA-MB-468 [21]): 85.6% | normalised response (BT-474 [22]): 91.3% | normalised response (HDQ-P1 [23]): 99.8% | normalised response (HCC1599 [24]): 107% | normalised response (CAL-148 [25]): 90% | normalised response (MDA-MB-453 [26]): 90.7% | normalised response (CAL-120 [27]): 90.4% | normalised response (Hs578T [28]): 106% | normalised response (CAL-85-1 [29]): 89.7% | normalised response (SK-BR-3 [30]): 84.8% | normalised response (MDA-MB-231 [31]): 93.9% | normalised response (HCC1143 [32]): 98.1% | normalised response (BT-549 [33]): 100% | normalised response (MDA-MB-436 [34]): 88.9%

C[C@]1(O)C[C@@H](c2nc(-c3ccc4ccc(-c5ccccc5)nc4c3)c3c(N)nccn32)C1 [Linsitinib] (1000 nM)
normalised response (MCF-10A [1]): 75% | normalised response (HCC1937 [35]): 124% | normalised response (CAL-51 [2]): 104% | normalised response (DU-4475 [3]): 94.9% | normalised response (MFM-223 [4]): 96.5% | normalised response (MDA-MB-468 [36]): 75.2% | normalised response (BT-474 [5]): 91% | normalised response (HDQ-P1 [6]): 87.9% | normalised response (HCC1599 [7]): 94.6% | normalised response (CAL-148 [8]): 105% | normalised response (MDA-MB-453 [9]): 102% | normalised response (CAL-120 [10]): 94.9% | normalised response (Hs578T [37]): 93.5% | normalised response (CAL-85-1 [11]): 97.3% | normalised response (MDA-MB-231 [12]): 102% | normalised response (HCC1143 [13]): 76.7% | normalised response (BT-549 [14]): 108% | normalised response (MDA-MB-436 [15]): 73.8% | normalised response (MCF-10A [38]): 48.5% | normalised response (HCC1937 [39]): 98.9% | normalised response (CAL-51 [40]): 94% | normalised response (DU-4475 [41]): 92.5% | normalised response (MFM-223 [42]): 94.5% | normalised response (MDA-MB-468 [43]): 79.6% | normalised response (BT-474 [44]): 78% | normalised response (HDQ-P1 [45]): 76.8% | normalised response (HCC1599 [46]): 92% | normalised response (CAL-148 [47]): 101% | normalised response (MDA-MB-453 [48]): 83.8% | normalised response (CAL-120 [49]): 88% | normalised response (Hs578T [50]): 101% | normalised response (CAL-85-1 [51]): 85.5% | normalised response (SK-BR-3 [52]): 69.8% | normalised response (MDA-MB-231 [53]): 85.9% | normalised response (HCC1143 [54]): 88.7% | normalised response (BT-549 [55]): 88.6% | normalised response (MDA-MB-436 [56]): 95.5%
